For eight compounds, inhibition and melting point results are on record in patent publication US6689798B2, “Benzofuran derivatives” (Daiichi Pharmaceutical Co., Ltd., priority 2000, dated 2004).

Counter-ions that a name gives are not always drawn.

The target of data set [1] is T1, steroid 17α-hydroxylase and/or steroid C17-20 lyase (Rattus norvegicus, UniProt P11715).
T1 construct: the testis of rats (SD, male) was homogenized and centrifuged to obtain microsome; from tissue; host or cells: rat (SD, male) testis microsomes
T1 sequence (P11715 1-507): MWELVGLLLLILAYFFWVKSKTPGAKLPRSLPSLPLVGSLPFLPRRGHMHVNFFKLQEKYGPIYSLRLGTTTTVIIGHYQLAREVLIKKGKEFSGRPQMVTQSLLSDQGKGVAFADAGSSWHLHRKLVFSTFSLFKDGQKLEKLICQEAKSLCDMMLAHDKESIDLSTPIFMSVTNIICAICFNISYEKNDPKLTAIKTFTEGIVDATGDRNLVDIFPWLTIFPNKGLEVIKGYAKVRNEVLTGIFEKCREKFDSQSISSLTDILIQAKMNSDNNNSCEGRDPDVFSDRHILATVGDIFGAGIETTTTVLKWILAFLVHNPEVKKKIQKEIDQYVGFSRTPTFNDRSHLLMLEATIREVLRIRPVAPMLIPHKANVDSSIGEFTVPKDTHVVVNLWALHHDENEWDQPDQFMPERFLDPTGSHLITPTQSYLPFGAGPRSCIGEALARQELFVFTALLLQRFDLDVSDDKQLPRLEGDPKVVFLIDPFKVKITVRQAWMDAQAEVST
The data set is described as follows: Measurement of steroid 17α-hydroxylase and/or steroid C17-20 lyase inhibitory activity (rat testis microsome). It is filed as biochemical. The conditions noted are these: test compound 300 nM, substrate 25 μM 17α-hydroxyprogesterone, NADPH 500 μM. On the procedure:
An experiment was carried out according to the method of T. Sergejew and R. W.
Hartmann (J. Enzyme Inhibition, 8, 113 (1994)). That is, the testis of rats (SD, male) was homogenized and centrifuged to obtain microsome. Each compound of the present invention prepared in Examples 1-13 was put into a micro tube (1.5 ml, Eppendorf Co.). After the addition of 100 μl of microsome protein solution, the concentration of which was adjusted to 0.1 mg/ml using 50 mM phosphate buffer solution (pH 7.4), 140 μl of 125 nmol NADPH solution, and 10 μl of 6.25 nmol 17α-hydroxyprogesterone, the mixture was incubated at 37° C. for 20 minutes. 50 μl of 1N hydrochloric acid and 1000 μl of ethyl acetate were sequentially added to the mixture. The mixture was shaken and centrifuged. The ethyl acetate layer was then washed with 250 μl of 50 mM phosphate buffer solution (pH 7.4) and 50 μl of IN hydrochloric acid, centrifuged, and concentrated. The concentrate was dissolved in 100 μl of acetonitrile. 10 μl of this solution was charged to high performance liquid chromatography. The amounts of the substrate and the formed product (androstenedione and testosterone) were measured to determine the enzyme activity. A sample without the test compound added was provided as a control. Steroid 17α-hydroxylase and/or steroid C17-20 lyase inhibitory activity (%) was calculated from the amounts of each substrate and product using the following equation (1). [formula]

By inhibition is commonly meant how much of the control response was suppressed. A lower inhibition goes with little suppression. With `Fc1cccc(-c2ccc3c(-c4cccnc4)coc3c2)c1` [Example 4, 3-[6-(3-fluorophenyl)benzo[b]furan-3-yl] Pyridine], in data set [1], the inhibition at 0.3 µM is 45%. In turn, `Nc1cccc(-c2ccc3c(-c4cccnc4)coc3c2)c1` [Example 6, 3-[3-(3-pyridyl)benzo[b]furan-6-yl]phenylamine] came in with an inhibition at 0.3 µM in data set [1] of 90%. Consider `Oc1cccc(-c2ccc3c(-c4cccnc4)coc3c2)c1` [Example 11, 3-[3-(3-pyridyl)benzo[b]furan-6-yl]phenol], for which the inhibition at 0.3 µM in data set [1] stood at 81%. `c1ccc(-c2ccc3c(-c4cccnc4)coc3c2)cc1` [Example 9, 3-(6-phenylbenzo[b]furan-3-yl)pyridine] showed an inhibition at 0.3 µM in data set [1] of 45%. Compound `Oc1ccc(-c2ccc3c(-c4cccnc4)coc3c2)cc1O` [Example 12, 4-[3-(3-pyridyl)benzo[b]furan-6-yl]-1,2-benzenediol hydrobromide] registered an inhibition at 0.3 µM in data set [1] of 66%. The compound `Fc1ccc(-c2ccc3c(-c4cccnc4)coc3c2)cc1` [Example 3, 3-[6-(4-fluorophenyl)benzo[b]furan-3-yl] Pyridine] gave an inhibition at 0.3 µM in data set [1] of 64%. `c1cncc(-c2coc3cc(-c4ccsc4)ccc23)c1` [Example 13, 3-[6-(3-thienyl)benzo[b]furan-3-yl]pyridine hydrochloride] showed an inhibition at 0.3 µM in data set [1] of 89%. For orientation: melting point means the temperature, or range, at which the solid turns liquid. `c1cncc(-c2ccc3c(-c4cccnc4)coc3c2)c1` [Example 7, 3-[6-(3-pyridyl)benzo[b]furan-3-yl]pyridine] came in with a melting point of 140.5 to 141.5 °C. The same compound returned an inhibition at 0.3 µM in data set [1] of 75%.
